# Results reported in patent US6524595B1, “Cyclodextrins preferentially substituted on their primary face by acid or amine functions” (priority 2000, dated 2003).
# How the values were obtained:
# [1] = Aspect of the solution obtained / nanoparticle formation; format: physicochemical
# Procedure: The solution was then added at a constant rate (1 ml/s) to distilled water (450 ml) with stirring to form a milky solution. […] The procedure of example 15 was followed but instead of using the compound obtained in example 2, a commercial β-cyclodextrin with an identical molar concentration was used.
# skin of rabbits = assay: Evaluation of primary dermal irritation in the rabbit; format: in vivo; conditions: 10% in a 0.5% xanthan gel, undiluted, 0.5 ml
# Procedure: Toxicological tests were carried out on the compound obtained in example 2a incorporated in an amount of 10% into a 0.5% xanthan gel, by occular evaluation in the rabbit, by a study of the absence of abnormal toxicity by a single oral administration to the rat and by a sensitization power study in the guinea-pig.
# At the same time, a toxicological study was carried out under the same experimental conditions on commercial β-cyclodextrin incorporated in an amount of 10% into a 0.5% xanthan gel.
# The preparations described above were applied undiluted in a dose of 0.5 ml to the skin of 3 rabbits using the method recommended by the OECD directive regarding the study of “The acute dermal irritant/corrosive effect”.
# The products were classified in accordance with the criteria in the order of Feb. 1, 1982 published in the JORF [Official journal of the French Republic] on Feb. 2, 1982.
# [2] = Vitamin E determination by HPLC (fluorescence); format: physicochemical
# Procedure: The vitamin E content was determined by HPLC (fluorescence) and evaluated for each sample: […]
# [3] = Cutaneous penetration study of vitamin E on Franz cell (diffusion, release, storage); format: in vitro ADME, rat; conditions: for percentage of vitamin E diffused: 2 g deposited, 2.54 cm^2 Franz cell, ethoxydiglycol receptor
# Procedure: Cutaneous penetration studies were carried out on products 26-a, 26-b, 26-c and 26-d from example 26. […] The receptor chamber was constituted by ethoxydiglycol and antibiotics. Diffusion was monitored over time by sampling from the receptor chamber then HPLC analysis (fluorescence). […] After rinsing the biopsy used in the diffusion study, it was kept in the Franz cell for 24 hours without donors. The quantity of active ingredient liberated in the ethoxydiglycol was then analyzed by HPLC, underlining the ability of the skin to temporarily retain the test solution (release study).
# [4] = Cutaneous penetration test of caffeine on Franz cell (diffusion, release, storage); format: in vitro ADME, rat; conditions: for average quantity of caffeine per unit surface diffused into the receptor chamber: 2 g deposited, 2.54 cm^2 Franz cell, PBS receptor
# Procedure: The receptor chamber was constituted by a PBS buffer and antibiotics. Diffusion was monitored over time by sampling from the receptor chamber and analysis by high performance liquid chromatography. […] After rinsing the biopsy used in the diffusion study, it was kept in the Franz cell for 24 hours without donors. The quantity of active ingredient liberated in the PBS buffer was then analyzed by HPLC, to study the ability of the skin to temporarily retain the test solution (Release study).
# [5] = biopsy in ethanolic solution 24 hours after release study
# [6] = rinsed biopsy kept in Franz cell 24 hours without donors
compound,measurement,setting,value
"OC[C@H]1O[C@@H]2O[C@H]3[C@H](O)[C@@H](O)[C@@H](O[C@H]4[C@H](O)[C@@H](O)[C@@H](O[C@H]5[C@H](O)[C@@H](O)[C@@H](O[C@H]6[C@H](O)[C@@H](O)[C@@H](O[C@H]7[C@H](O)[C@@H](O)[C@@H](O[C@H]8[C@H](O)[C@@H](O)[C@@H](O[C@H]1[C@H](O)[C@H]2O)O[C@@H]8CO)O[C@@H]7CO)O[C@@H]6CO)O[C@@H]5CO)O[C@@H]4CO)O[C@@H]3CO [commercial β-cyclodextrin, β-cyclodextrin]",solubility in water (in words),[1],soluble in water
same,nanoparticle formation (in words),[1]; nanoparticle protocol with commercial β-cyclodextrin at identical molar concentration,no nanoparticles are formed
same,primary dermal irritation classification,skin of rabbits,slight irritant for the skin
(Lauroate)y-β-cyclodextrin [Example 2a],encapsulation of vitamin E (in words),[2],encapsulated the vitamin E highly effectively
same,primary dermal irritation classification,skin of rabbits,non irritant to the skin
"Cc1c(C)c2c(c(C)c1O)CC[C@@](C)(CCC[C@H](C)CCC[C@H](C)CCCC(C)C)O2 [Example 26-d, vitamin E]",Vitamin E determination (vitamin E content of sample),[2]; 0.1% of vitamin E used,0.0943%
same,percentage of vitamin E diffused,[3]; 0 hours,0
same,percentage of vitamin E diffused,[3]; 48 hours,10.32%
same,Storage (vitamin E still present in the skin),[3]; [5],1.74 ± 0.24 % diffusion
same,Release (vitamin E liberated in the ethoxydiglycol),[3]; [6],3.33 ± 0.9 % diffusion
"Cn1c(=O)c2c(ncn2C)n(C)c1=O [Caffeine free, caffeine]",average quantity of caffeine per unit surface diffused into the receptor chamber,[4]; 0 hours,0 μg/cm^2
same,average quantity of caffeine per unit surface diffused into the receptor chamber,[4]; 24 hours,1783 μg/cm^2
same,Storage (caffeine still present in the skin),[4]; [5],26.57 ± 6.55 μg/cm2
same,Release (caffeine liberated in the PBS buffer),[4]; [6],286.8 ± 28.36 μg/cm2
